Earlier results, collected in patent US7141532B2, “Process for the preparation of a dry pesticidal composition containing a dicarboxylate component” (Monsanto Technology LLC, priority 2002, dated 2006).

pK1 (first proton): about 1.25 | pK2 (second proton): about 4.29
SMILES: O=C(O)C(=O)O [Oxalic acid]
